From publication PMC10914475 (iScience, 2024)

Target: SfCht5 (S. frugiperda chitinase 5; rSfCht5) (Spodoptera frugiperda, UniProt A0A8K1Z7B3)
Test: residual endochitinase activity with synthetic substrate
Type: biochemical

Chain of SfCht5 (S. frugiperda chitinase 5; rSfCht5) (A0A8K1Z7B3 21-555): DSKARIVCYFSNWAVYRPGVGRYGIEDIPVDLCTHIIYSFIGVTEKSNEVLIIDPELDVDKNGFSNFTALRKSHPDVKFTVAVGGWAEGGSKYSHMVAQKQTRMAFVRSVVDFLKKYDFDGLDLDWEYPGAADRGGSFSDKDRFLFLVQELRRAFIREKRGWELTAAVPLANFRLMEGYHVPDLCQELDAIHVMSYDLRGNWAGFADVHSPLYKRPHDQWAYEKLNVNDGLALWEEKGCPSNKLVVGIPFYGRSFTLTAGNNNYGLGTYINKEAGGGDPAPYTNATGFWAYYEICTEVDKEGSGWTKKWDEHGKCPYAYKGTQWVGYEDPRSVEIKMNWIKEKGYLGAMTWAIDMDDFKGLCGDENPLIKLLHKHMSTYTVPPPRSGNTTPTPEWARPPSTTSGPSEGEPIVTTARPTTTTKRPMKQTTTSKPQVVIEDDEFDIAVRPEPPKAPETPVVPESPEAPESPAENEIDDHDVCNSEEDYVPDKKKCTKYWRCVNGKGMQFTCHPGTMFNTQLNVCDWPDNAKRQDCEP

IC50: ~158 µM
Compound: COc1ccc2cc3[n+](cc2c1OC)CCc1cc2c(cc1-3)OCO2 [berberine, 9,10-Dimethoxy-5,6-dihydro-[1,3] dioxolo[4,5-g]isoquinolino[3,2-a]isoquinolin-7-ium chloride dihydrate]
